Laboratory results: publication PMC5665932, “A novel peptide that improves metabolic parameters without adverse central nervous system effects” (Scientific Reports, 2017)
Where a SMILES comes first, the peptide text is derived from it.

Legend:
DIO Wistar rats = test: Tail-cuff blood pressure and heart rate in DIO rats; format: in vivo; conditions: oral by gavage, mean ± SEM
Experimental: Measurements of systolic blood pressure were performed at the proximal part of the tail, by a tail-cuff method using the Kent RTBP2000 system and the Kent RTB001-R data acquisition system (Kent Scientific Corporation, Torrington, CT, USA) from 9 to 11 a.m. Before measurements, rats were warmed for 10 min and three stable consecutive measurements were taken and averaged after animals have been trained for proper adaptation to the procedures.

HEK293T cells = format: cell-based; conditions: up to 100 µM, n = 3/group
Experimental: (§1) HeLa and HEK293-T cells were cultured in DMEM (Dulbecco’s Modified Eagle Medium, Gibco®, USA) containing 10% fetal bovine serum (complete medium), penicillin and streptomycin (Gibco®, USA) at 37 °C and in presence of 5% of CO2. For cell counting, single cell suspension of HeLa and HEK293-T cells were rinsed with PBS and treated with 0.4% Trypan blue in PBS for 90 s. Excess dye was removed, and the cells were washed twice with PBS before counting. For a control of 100% permeabilized cells they were treated with 50% ethanol for 1 min and then stained as described above. In all of the experiments cellular viability was greater than 98% (data not shown). The MTT (3-(4,5-dimethylthiazol-2-yl)-2,5-diphenyltetrazolium bromide) tetrazolium reduction assays were conducted in a 96-well format. The optical density was measured at 570 nm using a SpectraMax M2 (Molecular Devices, Sunnyvale, CA, USA). Three independent experiments were conducted in triplicates for each treatment.

HeLa cells = format: cell-based; conditions: up to 100 µM, n = 3/group
Experimental: as §1

Male Wistar rats [1] = test: Forced swim test; format: in vivo; conditions: first 5 min of the swim test, n = 6/group (Pep19), n = 8–10/group (rimonabant)
Experimental: The forced swim test was based on previous designs. Male Wistar rats were placed in a cylindrical plexiglass tank (50 cm high and 30 cm diameter) filled with water (19 °C) up to a level of 25 cm from the bottom. The animal’s behavior during the first 5 min of the swim test was scored by a trained observer and the following measures were taken: (1) time spent swimming, defined as movements of all four limbs, swimming around the tank or diving and (2) time spent floating, defined as the time the animal remained immobile with only occasional slight movements to keep the body balanced and the nose above the water.

CB1R = target: T1, CB1R (Mus musculus, UniProt P47746); test: Displacement of [3H]SR141716A binding, membranes of 3T3-L1 cells; conditions: membranes (250 μg) of 3T3-L1 cells endogenously expressing CB1R, [3H]SR141716A 3 nM, Pep19 0–10 μM, 1 h at 30 °C, pH 7.8, n = 3; read-out: IC50, displaces [3H]SR141716A binding
T1 construct: Membranes were prepared from 3T3-L1 cells endogenously expressing CB1R; endogenous in cells; host or cells: 3T3-L1 cells (membranes)
Experimental: Membranes were prepared from 3T3-L1 cells endogenously expressing CB1R, and displacement ligand binding assays were carried out as previously described[8] with minor modifications. Briefly, membranes (250 μg) were incubated with [^3H] SR141716A (3 nM) in 50 mM Tris-Cl, pH 7.8, containing 1 mM EGTA, 5 mM MgCl2, and protease inhibitor cocktail in the presence of Pep19 (0–10 μM) for 1 h at 30 °C. At the end of the incubation period, membranes were filtered using a Brandel filtration system and GF/B filters (presoaked for 2 h at room temperature with 0.1% polyethyleneimine containing 0.2% fatty acid free BSA), filters were washed 3 times with ice-cold 50 mM Tris-Cl (pH 7.4) and bound radioactivity measured using a liquid scintillation counter.
Supplemental Figure 1. Ligand binding studies with Pep19. Membranes were prepared from 3T3L-1 cells endogenously expressing CB1R, and displacement ligand binding assays were carried out as previously described8 with minor modifications. Membranes (250 μg) were incubated with [3H]SR141716A (3 nM) in 50 mM Tris-Cl, pH 7.8, containing 1 mM EGTA, 5 mM MgCl2, and protease inhibitor cocktail in the presence of Pep19 (0-10 μM).
Values in the absence of Pep19 were taken as 100%. Data represent mean ± […]
(1 picture or pasted object on this page, not shown here)

Male C57BL/6J mice = format: in vivo; conditions: 0.1 or 1 mg/kg i.p. for 10 days
Experimental: Male C57BL/6J mice received a chronic treatment with Pep19 (0.1 or 1 mg/kg) or saline administrated i.p. for 10 days, once a day. The same animal was tested in the EPM and FST 30 and 35 minutes after the last injection, respectively.
Supplemental Figure 2. In vivo assays showing results of chronic treatment with Pep19 i.p. for 10 days. To further confirm the lack of in vivo effects of Pep19, it was chronically administrated for 10 days, and the behavior effects were evaluated in the tetrad cannabinoid tests, consisting of (a) catalepsy, (b) tail temperature, (c) locomotor activity and (d) hot plate test. Note that no […]
(saline) or Pep19 (one-way ANOVA followed by Tukey’s test, n = 6/group), […]
(a-d; * P<0.05). In the elevated plus maze (e, f) the anxiety-like activity of chronic administration was evaluated following i.p. injections of 0.1 or 1 mg/kg […]
groups treated with vehicle or Pep19 (one-way ANOVA followed by Tukey’s […]
locomotor (g) and speed travelled (h) in the elevated plus maze. In the forced swim test (i), chronic administration of Pep19 i.p. for 10 days produced no significant differences (one-way ANOVA followed by Tukey’s test, n = 6-7/ […]

Male Wistar rats [2] = test: Elevated plus maze; format: in vivo; conditions: 100–600 µg/kg, one hour after administration, 5 min, n = 7–9/group
Experimental: Male Wistar rats were tested in a wooden-made elevated plus maze according to Hefner and Holmes[43] one hour after vehicle or Pep19 i.p. administration (100–600 µg/kg). The percentage of entries, time spent in the open arms, and the number of enclosed arms entries for 5 min were analyzed by the Anymaze Software (version 4.5, Stoelting, USA). Locomotor activity and speed traveled were also recorded.

C57BL/6J mice = test: Tetrad cannabinoid tests (catalepsy, tail temperature, locomotor activity, hot plate); format: in vivo; conditions: n = 6/group
Experimental: C57BL/6J mice were treated i.p. with Pep19 (0.1 or 1 mg/kg), the CB1R agonist WIN55,212-2 (5 mg/kg) or vehicle (n = 6 per group) and evaluated in the tetrad cannabinoid tests. Another group of animals received Pep19 (0.1 or 1 mg/kg) or saline i.p. for 10 days, once a day. In the last day of treatment the animals were subjected to the tetrad cannabinoid tests 30 minutes after the i.p. administration. The CB1 agonist WIN55,212-2 (5 mg/kg) was administrated i.p. 30 minutes before the experiments as a positive control (n = 6 per group).
It was assayed by the bar test[40], 30 min after drug administration. Briefly, each mouse was placed on a bar oriented parallel to and approximately 4 cm above the bench surface. Cataleptic behavior was defined as the time the animal remained motionless holding on to the bar; cutoff = 300 s[41].
It was determined by using a thermal probe (Thermocom®, Nashua, NH 03062, EUA) positioned 50 cm of the animal. The mean of five pictures of five different tail regions was compared between a basal evaluation and another observation 35 min after drug administration.
It was determined by an open field test, in which a mouse was placed in a circular cage (40 cm diameter), 37 min after drug administration. The distance traveled by the animal was recorded for 10 min by the software ANY-MAZE (Stoelting).
The mouse was placed on a heated plate at 56 °C. An experimenter measured the time it took for the mouse to lick the paws or jump off of the hot plate; cutoff = 30 s[42]. The variation between a basal evaluation and another one taken 45 min after drug administration was defined as the result.

T1 sequence (P47746 whole entry): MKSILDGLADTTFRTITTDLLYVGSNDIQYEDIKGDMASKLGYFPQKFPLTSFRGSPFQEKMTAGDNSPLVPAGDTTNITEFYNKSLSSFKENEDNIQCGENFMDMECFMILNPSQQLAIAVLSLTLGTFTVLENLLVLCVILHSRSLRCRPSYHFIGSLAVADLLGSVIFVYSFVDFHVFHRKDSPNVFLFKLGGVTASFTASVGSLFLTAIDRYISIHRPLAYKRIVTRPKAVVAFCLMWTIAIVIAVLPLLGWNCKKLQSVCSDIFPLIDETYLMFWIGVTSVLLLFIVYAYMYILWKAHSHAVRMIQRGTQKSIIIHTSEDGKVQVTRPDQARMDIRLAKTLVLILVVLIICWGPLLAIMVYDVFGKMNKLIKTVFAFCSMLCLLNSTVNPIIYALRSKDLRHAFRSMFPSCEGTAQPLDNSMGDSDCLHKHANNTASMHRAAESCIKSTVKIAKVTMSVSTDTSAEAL

Compound: CC[C@H](C)[C@H](NC(=O)[C@@H](NC(=O)[C@@H](N)CC(=O)O)[C@@H](C)CC)C(=O)N[C@@H](C)C(=O)N[C@@H](CC(=O)O)C(=O)N[C@@H](CC(=O)O)C(=O)N[C@@H](CCC(=O)O)C(=O)N1CCC[C@H]1C(=O)N[C@@H](CC(C)C)C(=O)N[C@H](C(=O)O)[C@@H](C)O [Pep19] (H-DIIADDEPLT-OH)
- Heart rate (DIO Wistar rats; 100 µg/Kg): 405.3 ± 2.3 (n = 3) beats/min
- Heart rate (DIO Wistar rats; 300 µg/Kg): 399.9 ± 5.8 (n = 3) beats/min
- Heart rate (DIO Wistar rats; 600 µg/Kg): 408.5 ± 4.1 (n = 3) beats/min
- cell toxicity, MTT reduction assay (HEK293T cells): has no ability to induce cell toxicity
- cell toxicity, MTT reduction assay (HeLa cells): has no ability to induce cell toxicity
- forced swim test: time spent swimming and time spent floating (Male Wistar rats [1]): produced no significant differences
- IC50 (CB1R): ~4.9 pM
- elevated plus maze after chronic treatment: anxiety-like activity, locomotor and speed travelled (Male C57BL/6J mice; 30 minutes after the last injection, n=6-7/group): no significant differences were observed
- forced swim test after chronic treatment (Male C57BL/6J mice; 35 minutes after the last injection, n = 6-7/group): produced no
- elevated plus maze: distance moved, speed, ratio of open/total arms entries and time spent (Male Wistar rats [2]): did not alter
- cannabinoid tetrad after chronic treatment (C57BL/6J mice; 0.1 or 1 mg/kg i.p. for 10 days, once a day, tested 30 minutes after last administration): significant differences were observed between the groups treated with vehicle
- cannabinoid tetrad (catalepsy, hot plate, locomotor activity, tail temperature) (C57BL/6J mice; 0.1 or 1 mg/kg i.p., single administration): has no effect on the cannabinoid tetrad
